Assay results from patent publication US20180360799A1, “Nitrofuran Derivatives That Induce Apoptosis in Breast Cancer Cells by Activating Protein Expression” (Oklahoma Medical Research Foundation, priority 2015, published 2018).

Experiments:
Assay type in all cases: cell-based, human
[1] = test system: p-eIF2α; test: eIF2α phosphorylation by Western blotting; settings: 10 μM, indicated times
Experimental: FIG. 3D is an image showing ATF4 and p-EIF2α protein levels after treatment with a 5-nitrofuran-2-amide derivative compound 3d. Cells were treated with compound 3d (10 μM) for the indicated times, and ATF4 and p-eIF2a protein levels were analyzed by Western blotting. α-Tubulin was used as a loading control. The data shown are representative of 3 independent studies.
Prolonged or severe ER stress activates CHOP expression primarily through the PERK branch of the unfolded protein response, although the IRE1α and ATF6 branches also contribute.^5, 18 The 5-nitrofuran-2-amide derivatives could induce CHOP expression by acting as an ER stressor that activates all three branches of unfolded protein response or by preferentially activating a select branch of unfolded protein response. To distinguish between these possibilities, the inventor investigated which branches of the unfolded protein response were affected by compound 3d. Activation of the PERK pathway by ER stress leads to phosphorylation of eIF2α, followed by activation of the transcription and translation of the transcription factor ATF4, a 5′-upstream ORF-containing gene, and ATF4-mediated CHOP expression.^5, 22 To determine whether the PERK pathway is involved in compound 3d-mediated CHOP induction, ATF4 expression and eIF2a phosphorylation in HCC-1806 cells by qRT-PCR and Western blotting were analyzed. […]

[2] = test system: ATF4 mRNA; test: ATF4 mRNA by qRT-PCR; settings: 10 μM, indicated times
Text: Results are the means of 4 replicate wells and are representative of 3 independent studies. *P<0.05 by Student's t-test compared with DMSO-treated cells. Prolonged or severe ER stress activates CHOP expression primarily through the PERK branch of the unfolded protein response, although the IRE1α and ATF6 branches also contribute.^5, 18 The 5-nitrofuran-2-amide derivatives could induce CHOP expression by acting as an ER stressor that activates all three branches of unfolded protein response or by preferentially activating a select branch of unfolded protein response. To distinguish between these possibilities, the inventor investigated which branches of the unfolded protein response were affected by compound 3d. […] Total RNA was extracted using TRIzol reagent (Invitrogen, Carlsbad, Calif.) according to the manufacturer's protocol, and 2 μg of total RNA was reverse transcribed using a Superscript kit (Invitrogen). Real-time PCR was performed in 96-well format using SYBR Select Master Mix (Applied Biosystems, Foster City, Calif.) with an ABI 7500 PCR system (Applied Biosystems). The primer sequences used were: Human CHOP: SEQ ID NO: 1 [NT] and SEQ ID NO: 2 [NT]. Human ATF4: SEQ ID NO: 3 [NT] and SEQ ID NO: 4 [NT]. Human XBP1: SEQ ID NO: 5 [NT] and SEQ ID NO: 6 [NT]. Human Cyclophilin A: SEQ ID NO: 7 [NT] and SEQ ID NO: 8 [NT]. Human GAPDH: SEQ ID NO: 9 [NT] and SEQ ID NO: 10 [NT].

[3] = test system: caspase-3; test: Caspase-3 cleavage by Western blotting in HCC-1806 cells; settings: HCC-1806, 10 μM, at 8 h and 24 h
Experimental: FIG. 2A is an image showing apoptosis of HCC-1806 cells after treatment with a 5-nitrofuran-2-amide derivative compound 3d (above). Cells were treated with 3d (10 μM) for the indicated times, and cleavage of caspase-3 was determined by Western blotting. α-Tubulin was used as a loading control. The data shown are representative of 3 independent studies. FIGS. 2B and 2C are live-cell phase-contrast images (magnification 10×) showing treatment with DMSO and (10 μM) 5-nitrofuran-2-amide derivative compound 3d respectively for 24 h. To determine whether the reduction in TNBC cell viability by the 5-nitrofuran-2-amide derivatives was due to the induction of apoptosis, the inventor analyzed cleavage of caspase-3, a critical executioner of apoptosis, in HCC-1806 cells treated with compound 3d. […] To confirm this, HCC-1806 cells were cultured to near confluence and treated with 10 μM 3d or DMSO for 24 h and then imaged by live-cell phase-contrast microscopy.
HCC-1806 cells were seeded in 60-mm dishes at 8×10^5 cells/dish and treated for the indicated times. Cells were then washed with PBS and lysed with lysis buffer (Cell Signaling Technology, Danvers, Mass., US) containing EDTA and phosphatase inhibitors. Aliquots of 20 μg total protein were separated on 7% SDS-PAGE gels (Life Technologies, Carlsbad, Calif., US) and transferred to PVDF membranes. […]

CC1CCN(c2ccc(NC(=O)c3ccc([N+](=O)[O-])o3)cc2)CC1 [Compound 3d]
phosphorylation of eIF2α [1]: substantially increased the phosphorylation of eIF2a | ATF4 expression, mRNA [2]: significantly increased ATF4 expression | cleavage of caspase-3 [3]: increased cleavage of caspase-3 protein levels
